Experiments:
[1] = tested on: primary human CD4+ T lymphocytes; test: CD3/CD28 costimulation assay, IL-2 release; assay type: cell-based; settings: 48 h, IL-2 ELISA, read-out: IC50, inhibition of IL-2 release from stimulated CD4+ T lymphocytes
Method: The assay is performed with freshly isolated primary human CD4+ T lymphocytes. CD4+ T lymphocytes from whole blood are prepared using negative selection as previously described (Hatzelmann and Schudt, J. Pharmacol. Exp. Ther. 2001; 297:267-279). In brief, peripheral blood mononuclear cells (PBMC) are isolated by density gradient centrifugation using a Percoll gradient (p= 1.077 g/ml). 1×10^7 PBMC were then resuspended in 30 μl of PBS containing 0.5% FCS and human CD4+ T lymphocytes are isolated by depletion of non CD4+ T cells. For this, non-CD4+ T cells are Indirectly magnetically labeled with 10 μl of a cocktail of biotin-conjugated monoclonal antibodies (against CD8, CD14, CD16, CD19, CD36, CD56, CD123, TCR γ/δ; MACS CD4+ T cell isolation kit II, Miltenyi Biotec), as primary labeling reagent, and anti-biotin monoclonal antibodies conjugated to MicroBeads, as secondary labeling reagent The magnetically labeled non-CD4+ T cells are depleted by retaining them on a MACS column in the magnetic field of a MACS separator (Miltenyi Biotec, Bergisch Gladbach, Germany) according to the manufacturer's instruction. CD4+ T cells are resuspended in RPM 11640 containing 10% heat-inactivated FCS, 2 mM L-glutamine, 100 U/ml penicillin and 100 μg/ml streptomycin (Gibco Life Technologies).
2×10^5 CD4+ T cells in a total assay volume of 200 μl are stimulated via the T-cell receptor and the costimulatory molecule CO28 by using corresponding selective mAbs as previously described (Hatzelmann and Schudt, J. Pharmacol. Exp. Ther. 2001; 297:267-279). The assay is performed in 96 well tissue culture plates (655180, flat bottom, Greiner, Frickenhausen, Germany). Cells were maintained at 37° C. in a humidified atmosphere of 5% CO2 in an incubator (type BB6220 CU, Heraeus Instruments, Hanau, Germany). For determination of IL-2 level, all assays are performed in duplicate, and after 48 h of growth, supernatants are removed, pooled in 96 well plates (650101, U-shape, Greiner) and stored at −20° C. before measurement of IL-2 with a commercially available enzymimmunoassay kit from Coulter-Immunotech Diagnostics (Marseille, France) according to the manufacturer's instruction. For each experiment the appropriate dilution factor for IL-2 is determined. Dilutions are performed in diluent D (Coulter-Immunotech Diagnostics) and IL-2 for one condition is determined from the pool fraction in duplicate in a ELISA-reader (Rainbow, Tecan, Crailsheim, Germany) at 450 nm.
To investigate the effect of a test compound on the IL-2 release of stimulated CD4+ T cells, six three-fold dilution steps in duplicates per test compound are performed (final DMSO concentration 0.1%). […] The inhibition obtained In the presence of a test compound is calculated as percent inhibition of the high control. […]

PKCε = target: T1, PKCε (Homo sapiens, UniProt Q02156); test: Protein Kinase C ε assay (SPA); assay type: biochemical; settings: human recombinant PKCε, PKCη pseudosubstrate, read-out: IC50, inhibition of PKC ε
T1 construct: purchased Panvera
T1 sequence (Q02156 1-737): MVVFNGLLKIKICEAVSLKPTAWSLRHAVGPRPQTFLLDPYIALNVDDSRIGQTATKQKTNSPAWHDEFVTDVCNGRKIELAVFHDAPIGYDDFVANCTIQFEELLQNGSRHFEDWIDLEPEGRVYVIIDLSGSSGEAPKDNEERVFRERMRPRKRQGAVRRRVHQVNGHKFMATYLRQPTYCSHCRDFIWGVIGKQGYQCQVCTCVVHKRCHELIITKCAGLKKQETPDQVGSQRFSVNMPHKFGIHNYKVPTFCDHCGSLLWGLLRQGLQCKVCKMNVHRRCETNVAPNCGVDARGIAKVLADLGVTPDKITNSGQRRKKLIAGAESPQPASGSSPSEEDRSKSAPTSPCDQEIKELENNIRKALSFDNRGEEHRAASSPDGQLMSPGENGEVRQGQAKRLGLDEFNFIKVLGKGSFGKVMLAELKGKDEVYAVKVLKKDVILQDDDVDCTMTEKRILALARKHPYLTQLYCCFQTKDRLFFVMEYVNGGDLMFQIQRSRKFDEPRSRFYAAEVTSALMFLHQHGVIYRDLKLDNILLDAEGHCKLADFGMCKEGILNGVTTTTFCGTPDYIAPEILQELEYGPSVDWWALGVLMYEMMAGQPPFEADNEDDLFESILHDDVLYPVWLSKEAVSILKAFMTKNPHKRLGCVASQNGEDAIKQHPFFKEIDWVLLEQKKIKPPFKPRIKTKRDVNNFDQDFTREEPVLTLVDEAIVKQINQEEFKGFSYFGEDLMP
Method: (§1) The compounds of formula 1 are tested for their activity on different protein kinases and PKC isoforms using a scintillation proximity assay (SPA, Amersham International plc). ^33P-labeled peptides are captured onto streptavidin coated yttrium silicate SPA beads. β-particles, emitted from the captured ^33P-labeled substrate in close proximity to the bead are able to excite the scintillant, resulting in the generation of quantifiable light. The assay is performed in a 96-well polystyrene microtiterplate (1450-514, Isoplates, Wallac, Turku, Finland). The reaction mixture (50 μl) contains 10 μl of the test compound together with 10 μl of the relevant kinase, diluted in the relevant dilution buffer, 5 μl of 10 μM phorbol myristate acetate (PMA) in H2O, 5 μl of 1.6 mM phosphatidylserine (Sigma-Aldrich Chemie GmbH, Stein-heim, Germany) in 20 mM Tris/HCL buffer pH 7.4, 5 μl of 0.3% BSA in H2O, 5 μl of 30 μM relevant substrate and 10 μl of 5 μM ATP and 0.1 μCi of ^33P-ATP (Amersham, Freiburg, Germany) in 200 mM Tris/HCL pH 7.5 and 200 mM MgCl2. Incubation is performed for 40 min at room temperature (RT) without shaking. Reaction is stopped by adding 150 μl of cold stop solution containing 10 mM ATP, 5 mM EGTA pH 7.5, 0.1% Triton X-100 and 0.2 mg streptavidin coated yttrium silicate SPA beads (Amersham, RPNQ 0012). The sealed plate is incubated for 60 min at RT. Thereafter the MTP is counted in a Microbeta Jet (Wallac). IC50 measurement is performed on a routine basis by incubation a serial dilution of inhibitor at concentrations ranging between 0.01 and 100 μM according to the method described above. Background values are the signals of the reaction mixture without addition of the relevant kinase and are subtracted from all values. 100% values are the signals of the reaction mixture without addition of inhibitors.
(§2) Dependent on the efficacy of the inhibitors In the various test systems, corresponding IC50 values are calculated from concentration-inhibition curves by nonlinear regression analysis using the program GraphPad Prism (GraphPad Software Inc., San Diego, Calif.).
(§3) Human recombinant PKCε was obtained from Panvera and is used under the assay conditions as described above (Section A.1). The enzyme is diluted in PKC dilution buffer containing 1 mM Hepes pH 7.4, 0.5 mM DTT and 0.001% Triton X-100. The kinase reaction is performed with the biotinylated PKCη pseudosubstrate solved in H2O.

PKCβ1 = target: T2, PKCβ1 (Homo sapiens, UniProt P05771); test: Protein Kinase Cβ1 assay (SPA); assay type: biochemical; settings: human recombinant PKCβ1, SPA, biotinylated PKCα pseudosubstrate, 0.5 mM CaCl2; read-out: IC50, inhibition of PKC β1
T2 construct: purchased Panvera
T2 sequence (P05771 whole entry): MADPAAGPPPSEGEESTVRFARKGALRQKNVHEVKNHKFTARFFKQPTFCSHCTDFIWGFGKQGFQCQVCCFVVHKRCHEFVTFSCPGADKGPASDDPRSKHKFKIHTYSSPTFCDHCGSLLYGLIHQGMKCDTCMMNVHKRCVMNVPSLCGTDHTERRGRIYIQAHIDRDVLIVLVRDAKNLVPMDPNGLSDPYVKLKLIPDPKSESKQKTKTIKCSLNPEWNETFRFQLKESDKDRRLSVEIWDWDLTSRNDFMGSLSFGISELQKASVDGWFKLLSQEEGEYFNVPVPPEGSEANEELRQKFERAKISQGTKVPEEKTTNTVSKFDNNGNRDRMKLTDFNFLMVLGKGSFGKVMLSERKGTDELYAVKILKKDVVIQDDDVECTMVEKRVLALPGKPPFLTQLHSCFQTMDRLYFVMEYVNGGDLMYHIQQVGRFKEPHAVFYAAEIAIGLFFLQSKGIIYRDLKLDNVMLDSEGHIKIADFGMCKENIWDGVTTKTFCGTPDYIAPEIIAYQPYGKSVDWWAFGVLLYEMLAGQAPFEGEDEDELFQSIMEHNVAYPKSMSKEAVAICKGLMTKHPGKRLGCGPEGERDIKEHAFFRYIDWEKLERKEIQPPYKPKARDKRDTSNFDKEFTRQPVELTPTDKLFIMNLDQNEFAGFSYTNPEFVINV
Method: as §1, §2
Human recombinant PKCβ1 was obtained from Panvera and is used under the assay conditions as described above (Section A.1). The enzyme is diluted in PKC dilution buffer containing 1 mM Hepes pH 7.4, 0.5 mM DTT and 0.001% Triton X-100. The assay additionally contains 0.5 mM CaCl2. The kinase reaction is performed with the biotinylated PKCα pseudosubstrate solved in H2O. The examples 29, 45, 52, 128 and 139 inhibit PKC β1 in this assay with an IC50 between 2 and 40 μM.

PKCη = target: T3, PKCη (Homo sapiens, UniProt P24723); test: Protein Kinase C η assay (SPA); assay type: biochemical; settings: human recombinant PKCη from Sf21 insect cells, read-out: IC50, inhibition of PKC η
T3 construct: made in house; host or cells: Sf21 insect cells
T3 sequence (P24723 whole entry): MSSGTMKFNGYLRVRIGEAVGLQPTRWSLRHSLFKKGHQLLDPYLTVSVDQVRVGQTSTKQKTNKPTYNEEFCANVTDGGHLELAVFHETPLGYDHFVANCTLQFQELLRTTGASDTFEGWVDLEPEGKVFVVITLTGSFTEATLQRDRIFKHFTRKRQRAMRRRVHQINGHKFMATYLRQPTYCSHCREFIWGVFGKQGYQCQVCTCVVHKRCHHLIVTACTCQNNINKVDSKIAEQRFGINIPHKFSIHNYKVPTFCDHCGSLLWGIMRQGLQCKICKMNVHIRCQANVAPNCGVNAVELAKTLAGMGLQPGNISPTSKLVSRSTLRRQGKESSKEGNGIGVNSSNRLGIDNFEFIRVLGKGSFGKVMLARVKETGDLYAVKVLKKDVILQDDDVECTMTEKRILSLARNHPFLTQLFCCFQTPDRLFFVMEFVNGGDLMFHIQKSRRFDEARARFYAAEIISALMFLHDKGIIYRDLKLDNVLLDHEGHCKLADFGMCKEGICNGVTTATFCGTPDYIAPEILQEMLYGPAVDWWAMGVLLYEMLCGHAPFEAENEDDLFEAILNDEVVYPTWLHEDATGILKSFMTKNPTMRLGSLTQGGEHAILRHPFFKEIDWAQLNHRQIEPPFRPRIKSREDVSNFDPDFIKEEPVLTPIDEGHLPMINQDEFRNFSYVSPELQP
Method: as §1, §2
as §3, with “nickel bead purified PKCη” for “PKCε was obtained”, “Sf21 insect cells” for “Panvera and”, “H2O. The examples 52, 55, 118 and 135 inhibit PKC η in this assay with an IC50 between 6 and 50 μM.” for “H2O.”

PKCθ = target: T4, PKCθ (Homo sapiens, UniProt Q04759); test: Protein Kinase C θ assay (SPA); assay type: biochemical; settings: human recombinant PKCθ from Sf21 insect cells, read-out: IC50, inhibition of PKC θ
T4 construct: made in house; host or cells: Sf21 insect cells
T4 sequence (Q04759 whole entry): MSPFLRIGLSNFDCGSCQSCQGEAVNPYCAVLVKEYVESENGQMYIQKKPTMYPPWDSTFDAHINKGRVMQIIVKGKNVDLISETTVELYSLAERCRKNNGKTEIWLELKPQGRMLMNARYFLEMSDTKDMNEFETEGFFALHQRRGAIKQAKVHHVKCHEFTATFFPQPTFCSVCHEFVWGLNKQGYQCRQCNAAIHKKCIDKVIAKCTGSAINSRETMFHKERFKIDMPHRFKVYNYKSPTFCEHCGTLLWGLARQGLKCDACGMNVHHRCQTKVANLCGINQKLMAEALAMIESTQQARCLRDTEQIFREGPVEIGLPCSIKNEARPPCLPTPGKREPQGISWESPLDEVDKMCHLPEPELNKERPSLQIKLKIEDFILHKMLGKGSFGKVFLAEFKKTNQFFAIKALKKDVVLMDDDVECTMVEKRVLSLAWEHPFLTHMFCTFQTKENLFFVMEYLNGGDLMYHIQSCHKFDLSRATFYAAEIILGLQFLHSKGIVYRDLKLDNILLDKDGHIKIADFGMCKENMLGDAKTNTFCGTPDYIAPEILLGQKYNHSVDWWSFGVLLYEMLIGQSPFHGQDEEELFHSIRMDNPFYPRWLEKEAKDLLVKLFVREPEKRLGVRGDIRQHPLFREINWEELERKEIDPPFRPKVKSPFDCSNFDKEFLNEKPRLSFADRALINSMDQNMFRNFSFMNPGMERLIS
Method: as §1, §2
as §3, with “nickel bead purified PKCθ” for “PKCε was obtained”, “Sf21 insect cells” for “Panvera and”, “PKCθ” for “PKCη”, “H2O. The examples 8, 22, 46, 115, 118 and 161 inhibit PKC 9 in this assay with an IC50<1 μM.” for “H2O.”

Row | Compound | IC50 [1] [µM] | IC50 (PKCη) [µM] | also measured
1 | O=S(=O)(Nc1ccc(Nc2cc(-c3cccc4ccccc34)ncn2)cc1)c1ccccc1F [Example 13, 2-Fluoro-N-[4-(6-naphthalen-1-yl-pyrimidin-4-ylamino)-phenyl]-benzenesulfonamide] | 1 to 9 | – | –
2 | COc1cccc(-c2cc(Nc3ccc(NS(=O)(=O)c4ccc(C#N)cc4)cc3)ncn2)c1 [Example 19, 4-Cyano-N-{4-[6-(3-methoxy-phenyl)-pyrimidin-4-ylamino]phenyl}benzenesulfonamide] | 1 to 9 | – | –
3 | COc1cccc(-c2cc(Nc3ccc(NS(=O)(=O)c4ccccc4F)cc3)ncn2)c1 [Example 20, 2-Fluoro-N-{4-[6-(3-methoxy-phenyl)-pyrimidin-4-ylamino]-phenyl}-benzenesulfonamide] | 1 to 9 | – | –
4 | CC(=O)c1ccc(-c2cc(Nc3ccc(NS(=O)(=O)c4c(F)cccc4F)cc3)ncn2)cc1 [Example 27, N-{4-[6-(4-Acetyl-phenyl)-pyrimidin-4-ylamino]-phenyl}-2,6-difluoro-benzenesulfonamide] | – | – | IC50 (PKCε): 4 to 21 µM
5 | O=S(=O)(Nc1ccc(Nc2cc(-c3ccc(OCCCN4CCOCC4)cc3)ncn2)cc1)c1c(F)cccc1F [Example 38, 2,6-Difluoro-N-(4-{6-[4-(3-morpholin-4-yl-propoxy)-phenyl]-pyrimidin-4-ylamino}-phenyl)-benzenesulfonamide] | – | – | IC50 (PKCε): 4 to 21 µM
6 | CN1CCN(CCOc2ccc(-c3cc(Nc4ccc(NS(=O)(=O)c5c(F)cccc5F)cc4)ncn3)cc2)CC1 [Example 47, 2,6-Difluoro-N-[4-(6-{4-[2-(4-methyl-piperazin-1-yl)-ethoxy]-phenyl}-pyrimidin-4-ylamino)-phenyl]-benzenesulfonamide] | – | – | IC50 (PKCε): 4 to 21 µM
7 | COc1ccc(S(=O)(=O)Nc2ccc(Nc3cc(-c4ccc(OCCN5CCN(C)CC5)cc4)ncn3)cc2)cc1 [Example 52, 4-Methoxy-N-[4-(6-{4-[2-(4-methyl-piperazin-1-yl)-ethoxy]-phenyl}-pyrimidin-4-ylamino)-phenyl]-benzenesulfonamide] | – | 6 to 50 | IC50 (PKCβ1): 2 to 40 µM
8 | Cc1ccc(S(=O)(=O)Nc2ccc(Nc3cc(-c4ccc(OCCCN5CCN(C)CC5)cc4)ncn3)cc2)cc1 [Example 55, 4-Methyl-N-[4-(6-{4-[3-(4-methyl-piperazin-1-yl)-propoxy]-phenyl}-pyrimidin-4-ylamino)-phenyl]-benzenesulfonamide] | – | 6 to 50 | –
9 | O=S(=O)(Nc1ccc(Nc2cc(-c3ccc4[nH]ccc4c3)ncn2)cc1)c1ccc(F)cc1F [Example 118, 2,4-Difluoro-N-{4-[6-(1H-indol-5-yl)-pyrimidin-4-ylamino]-phenyl}-benzenesulfonamide] | – | 6 to 50 | IC50 (PKCθ): < 1 µM
10 | Cc1ccc(S(=O)(=O)Nc2ccc(Nc3cc(-c4ccc5c(ccn5CCCN(C)C)c4)ncn3)cc2)cc1 [Example 135, N-(4-{6-[1-(3-Dimethylamino-propyl)-1H-indol-5-yl]-pyrimidin-4-ylamino}-phenyl)-4-methyl-benzenesulfonamide] | – | 6 to 50 | –
11 | Cc1ccc(S(=O)(=O)Nc2ccc(Nc3cc(-c4ccc5c(ccn5CCN(C)C)c4)ncn3)cc2)cc1 [Example 136, N-(4-{6-[1-(2-Dimethylamino-ethyl)-1H-indol-5-yl]pyrimidin-4-ylamino}-phenyl)-4-methyl-benzenesulfonamide] | 1 to 9 | – | –

— US20080242681A1, “N-4-(6-(Hetero)Aryl-Pyrimidin-4-Ylaminophenyl)-Benzenesulfonamides as Kinase Inhibitors” (Altana Pharma AG, priority 2004, published 2008)
